Data published in the supplement of paper PMC4862054.

Tests used:
Conditions in all cases: incubation time: 72 h
MDA-MB-231 = assay: normalised response (% of control), CellTox Green; higher = less cell death (100 = DMSO, 0 = benzethonium chloride kill control)
How it was run: (§1)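 CellTox Green fluorescence (485/520 nm) and, after 10 min at room temperature, CellTiter-Glo luminescence were read from breast cancer cell lines incubated 72 h in 384-well plates. Cells were seeded as 20 µl suspension onto compound at 5 concentrations in 10-fold steps over a 10,000-fold range chosen per compound. Each plate was normalised to 0.1 % DMSO (100) and a positive kill control (0). Values are normalised signals, one per concentration.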

MDA-MB-468 = assay: as above
How it was run: as §1

BT-474 = assay: as above
How it was run: as §1

CAL-85-1 [1] = assay: as above
How it was run: as §1

MFM-223 = assay: as above
How it was run: as §1

CAL-120 = assay: as above
How it was run: as §1

Hs578T = assay: as above
How it was run: as §1

MDA-MB-453 [2] = assay: as above
How it was run: as §1

HDQ-P1 [3] = assay: as above
How it was run: as §1

CAL-51 [4] = assay: as above
How it was run: as §1

DU-4475 [5] = assay: as above
How it was run: as §1

BT-549 = assay: as above
How it was run: as §1

MDA-MB-436 = assay: as above
How it was run: as §1

CAL-148 [6] = assay: as above
How it was run: as §1

MCF-10A = assay: as above
How it was run: as §1

HCC1599 = assay: as above
How it was run: as §1

HCC1937 = assay: as above
How it was run: as §1

HCC1143 = assay: as above
How it was run: as §1

CAL-85-1 [7] = assay: normalised viability (% of control), CellTiter-Blue; higher = more viable cells (about 100 = DMSO control)
Description: (§2)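 DSRT, CellTiter-Blue viability, 72 h incubation. Signal is normalised to DMSO and benzethonium chloride controls. Value is the normalised response at dose 7.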

MDA-MB-453 [8] = assay: as above
Description: as §2

HDQ-P1 [9] = assay: as above
Description: as §2

CAL-51 [10] = assay: as above
Description: as §2

DU-4475 [11] = assay: as above
Description: as §2

CAL-148 [12] = assay: as above
Description: as §2

Row | Structure (SMILES) | normalised response (MDA-MB-231) | normalised response (MDA-MB-468) | normalised response (BT-474) | normalised response (CAL-85-1 [1]) | normalised response (MFM-223) | normalised response (CAL-120) | normalised response (Hs578T) | normalised response (MDA-MB-453 [2]) | normalised response (HDQ-P1 [3]) | normalised response (CAL-51 [4]) | normalised response (DU-4475 [5]) | normalised response (BT-549) | normalised response (MDA-MB-436) | normalised response (CAL-148 [6]) | normalised response (MCF-10A) | normalised response (HCC1599) | normalised response (HCC1937) | normalised response (HCC1143) | normalised viability (CAL-85-1 [7]) | normalised viability (MDA-MB-453 [8]) | normalised viability (HDQ-P1 [9]) | normalised viability (CAL-51 [10]) | normalised viability (DU-4475 [11]) | normalised viability (CAL-148 [12])
1 | CC1=C2C[C@H]3[C@@H](CC=C4C[C@@H](O)CC[C@@]43C)[C@@H]2CC[C@]12O[C@@H]1C[C@H](C)CN[C@H]1[C@H]2C [Cyclopamine] (10000 nM) | 116% | 155% | 98% | 66.8% | 89.6% | 97.8% | 51.4% | 103% | 110% | 98.9% | 103% | 59% | 92.2% | 100% | 58.9% | 101% | – | – | – | – | – | – | – | –
2 | Cn1cnc2c(F)c(Nc3ccc(Br)cc3Cl)c(C(=O)NOCCO)cc21 [Selumetinib] (10000 nM) | 21.6% | -53.9% | 99.4% | 108% | 100% | 87.3% | 89.5% | 101% | 75% | 101% | 62.3% | 99.7% | 101% | 96% | 74.4% | 108% | 98.3% | 97% | – | – | – | – | – | –
3 | O=NN(CCCl)C(=O)NCCCl [Carmustine] (10000 nM) | 96.9% | 138% | 98.8% | 114% | 94.8% | 98.7% | 100% | 99.4% | 91.3% | 100% | 95.3% | 84.3% | 88.9% | 98.7% | 104% | 102% | 86.4% | 54.2% | – | – | – | – | – | –
4 | CC(C)(C)c1cnc(CSc2cnc(NC(=O)C3CCNCC3)s2)o1 [SNS-032] (10000 nM) | -26.5% | 44.3% | 93% | 42.8% | 76.7% | 94.1% | 41.9% | 99.2% | 68.4% | 81.1% | 91.7% | 76% | 94.2% | 91.3% | 26.3% | 77.1% | 76.1% | 76.9% | – | – | – | – | – | –
5 | O=C1CN2Cc3c(ccc(Cl)c3Cl)N=C2N1 [Anagrelide] (10000 nM) | 94.7% | 67% | 101% | 108% | 69.6% | 98.9% | 100% | 100% | 78.9% | 54.9% | 96.3% | 89.6% | 94.9% | 60.6% | 53.2% | 99% | 106% | 85.1% | – | – | – | – | – | –
6 | CC1(C)CNc2cc(NC(=O)c3cccnc3NCc3ccncc3)ccc21 [Motesanib] (1000 nM) | 97.7% | 108% | 98% | 91.8% | 97% | 99.5% | 83.6% | 101% | 108% | 96.1% | 100% | 123% | 79% | 103% | 95.4% | 97.3% | – | 103% | 79.8% | 75.4% | 78.1% | 105% | 99.5% | 90.3%
7 | Oc1ncnc2[nH]ncc12 [Allopurinol] (1000 nM) | – | 80.5% | 100% | 99% | 103% | 95% | 101% | 63% | 106% | 118% | 96.8% | 103% | 107% | 106% | 94.7% | 97% | 89.9% | – | 96.3% | 100% | 88% | 91.5% | 109% | 124%
8 | Nc1nc2[nH]cnc2c(=S)[nH]1 [Thioguanine] (10000 nM) | 85.2% | 51.8% | 103% | 97.4% | 103% | 97.7% | 133% | 97.6% | 101% | 80.3% | 91.9% | 87% | 93.2% | 92.2% | 108% | 96.2% | 83.7% | 106% | – | – | – | – | – | –
9 | Nc1ncn([C@@H]2O[C@H](CO)[C@@H](O)[C@H]2O)c(=O)n1 [Azacitidine] (1000 nM) | 93.2% | 33.9% | 80.4% | 98.4% | 89.6% | 101% | – | 110% | 59.9% | 105% | 97% | 108% | 97.7% | 84.3% | 101% | 96.4% | – | – | 91.4% | 98.9% | 106% | 96.7% | 116% | 97.3%
10 | Nc1ncn([C@@H]2O[C@H](CO)[C@@H](O)[C@H]2O)c(=O)n1 [Azacitidine] (10000 nM) | 75.5% | 73.4% | 80% | 110% | 89.7% | 96.5% | 84.9% | 98.8% | 103% | 75.7% | 86.7% | 99.8% | 55.6% | 97.7% | 81.2% | 92% | 93.3% | 87.7% | – | – | – | – | – | –
11 | CC1(C)CNc2cc(NC(=O)c3cccnc3NCc3ccncc3)ccc21 [Motesanib] (10000 nM) | 114% | 123% | 98.2% | 94.5% | 97.2% | 96.7% | 86.8% | 101% | 94.1% | 101% | 101% | 103% | 109% | 102% | 80.4% | 108% | 98.6% | 94% | – | – | – | – | – | –
12 | Oc1ncnc2[nH]ncc12 [Allopurinol] (10000 nM) | 108% | 79% | 104% | 83.4% | 94.1% | 101% | 70.8% | 75.7% | 108% | 116% | 98.6% | 89.5% | 99.7% | 98% | 102% | 102% | 76% | 117% | – | – | – | – | – | –
13 | Cc1sc2c(c1C)C(c1ccc(Cl)cc1)=N[C@@H](CC(=O)OC(C)(C)C)c1nnc(C)n1-2 [(+)JQ1] (10000 nM) | 62.5% | -39.7% | 92.8% | 24% | 97.8% | 91.3% | 100% | 102% | 87.6% | 14.5% | 81.4% | 66.8% | 72.9% | 50.8% | 101% | 87.9% | 68.2% | 123% | – | – | – | – | – | –
14 | Cn1cc(C2=Nc3cc(NC(=O)C(N)C4CCCCC4)cc4c3C2=CNNC4=O)cn1 (configuration not stated) (10000 nM) | 54.2% | 13.5% | 97.1% | 59.8% | 10.9% | 89.9% | 84.6% | 41.1% | -67.6% | -9.5% | 83.1% | 39.3% | 92.7% | 58.5% | 31.3% | 82.4% | 95.9% | 115% | – | – | – | – | – | –
15 | CC(=O)O[C@@]12CO[C@@H]1C[C@H](O)[C@@]1(C)C(=O)[C@H](O)C3=C(C)[C@@H](OC(=O)[C@H](O)[C@@H](NC(=O)OC(C)(C)C)c4ccccc4)C[C@@](O)([C@@H](OC(=O)c4ccccc4)[C@H]21)C3(C)C [Docetaxel] (1000 nM) | -47.2% | 134% | 58.4% | 29.6% | 53.9% | 89.9% | 22.6% | 92.4% | 35.5% | 45.6% | 98.5% | 38.7% | 71.9% | 84.2% | 36.3% | 88.5% | 46.5% | 55.4% | – | – | – | – | – | –
16 | COc1cc2c(cc1O)CC[C@@H]1[C@@H]2CC[C@]2(C)[C@@H](O)CC[C@@H]12 [2-methoxyestradiol] (10000 nM) | -158% | 77.4% | 70.9% | 51.6% | 52.5% | 78.8% | -39.2% | 94.9% | 94.4% | 8.99% | 97.4% | 85.8% | 81.1% | 78.8% | 48.3% | 89% | 90% | 106% | – | – | – | – | – | –
17 | CC[C@@H]1C(=O)OC[C@@H]1Cc1cncn1C [Pilocarpine] (40000 nM) | 93.1% | – | 98.6% | 114% | 97.4% | 52.5% | – | 93.9% | – | 98.4% | 96.7% | 107% | 92.3% | 96.3% | 83.9% | 97% | 97.7% | 80.7% | – | – | – | – | – | –
18 | CC[C@@H]1C(=O)OC[C@@H]1Cc1cncn1C [Pilocarpine] (4000 nM) | 97.8% | 66.5% | 96% | 95.5% | 69.2% | 99.3% | 70.9% | 101% | – | 104% | 95.3% | 112% | 81.4% | 73.7% | 101% | 92.5% | – | 72.1% | 89.5% | 101% | 121% | 108% | 95.5% | 101%
19 | O=C1CN2Cc3c(ccc(Cl)c3Cl)N=C2N1 [Anagrelide] (1000 nM) | 86.2% | 137% | 97% | 103% | 102% | 97.8% | 83.8% | 105% | – | 59.7% | 97.4% | 97% | 87.3% | 56.1% | 104% | 94.3% | 88.6% | – | 86.1% | 103% | 105% | 73.6% | 113% | 104%
